Test results as given in ChEMBL document CHEMBL1250512, “Bile acid toxicity structure-activity relationships: correlations between cell viability and lipophilicity in a panel of new and known bile acids using an oesophageal cell line (HET-1A)” (Bioorg Med Chem, 2010).

Experiments:
[1] = Cytotoxicity against human HET-1A cells assessed as cell viability at 500 uM after 24 hrs by MTT assay relative to control; format: cell-based
[2] = Cytotoxicity against human HuH7 cells assessed as cell viability at 500 uM after 24 hrs by MTT assay relative to control; format: cell-based, Huh-7
[3] = Cytotoxicity against human HET-1A cells assessed as cell viability after 24 hrs by MTT assay; format: cell-based
[4] = Cytotoxicity against human HET-1A cells assessed as cell viability at >1 mM after 24 hrs by MTT assay; format: cell-based

SMILES	viability at 24 h, 500 µM [1] [%]	viability at 24 h, 500 µM [2] [%]	CC50 at 24 h [3] [µM]	Activity [4]
C[C@H](CCCO)[C@H]1CC[C@H]2[C@@H]3[C@@H](O)C[C@@H]4C[C@H](O)CC[C@]4(C)[C@H]3CC[C@]12C	97.5	44.5	–	–
C[C@H](CCCN=[N+]=[N-])[C@H]1CC[C@H]2[C@@H]3[C@@H](O)C[C@@H]4C[C@H](O)CC[C@]4(C)[C@H]3CC[C@]12C	75.9	45.1	688	–
C[C@H](CCC(N)=O)[C@H]1CC[C@H]2[C@@H]3CC[C@@H]4C[C@H](O)CC[C@]4(C)[C@H]3C[C@H](O)[C@]12C	38.6	25.2	39	–
C[C@H](CCC(=O)O)[C@H]1CC[C@H]2[C@@H]3CC[C@@H]4C[C@H](N=[N+]=[N-])CC[C@]4(C)[C@H]3C[C@H](O)[C@]12C	30.7	37.1	71	–
C[C@H](CCC(=O)O)[C@H]1CC[C@H]2[C@@H]3CC[C@@H]4C[C@@H](N=[N+]=[N-])CC[C@]4(C)[C@H]3C[C@H](O)[C@]12C	35.4	108	97	–
C[C@H](CCC(=O)O)[C@H]1CC[C@H]2[C@@H]3CC[C@@H]4C[C@H](O)CC[C@]4(C)[C@H]3CC(=O)[C@]12C	81.8	80.6	–	–
C[C@H](CCC(=O)O)[C@H]1CC[C@H]2[C@@H]3C(=O)C[C@@H]4C[C@H](O)CC[C@]4(C)[C@H]3CC[C@]12C	76.9	75.6	–	–
CC(=O)O[C@@H]1CC[C@@]2(C)[C@H](CC(=O)[C@@H]3[C@@H]2CC[C@]2(C)[C@@H]([C@H](C)CCC(=O)O)CC[C@@H]32)C1	47.2	77.7	366	–
C[C@H](CCC(=O)O)[C@H]1CC[C@H]2[C@@H]3C(=O)C[C@@H]4CC(=O)CC[C@]4(C)[C@H]3CC[C@]12C	93.5	54.6	–	–
C[C@H](CCC(=O)O)[C@H]1CC[C@H]2[C@@H]3[C@@H](N=[N+]=[N-])C[C@@H]4C[C@H](O)CC[C@]4(C)[C@H]3CC[C@]12C	29	64.1	99	–
C[C@H](CCC(=O)O)[C@H]1CC[C@H]2[C@@H]3[C@@H](O)C[C@@H]4C[C@H](O)CC[C@]4(C)[C@H]3C[C@H](O)[C@]12C	80.8	82.3	–	–
COC(=O)CC[C@@H](C)[C@H]1CC[C@H]2[C@@H]3[C@@H](O)C[C@@H]4C[C@H](O)CC[C@]4(C)[C@H]3CC[C@]12C	94.3	81.2	–	–
C[C@H](CCC(=O)O)[C@H]1CC[C@H]2[C@@H]3[C@@H](O)C[C@@H]4C[C@H](N=[N+]=[N-])CC[C@]4(C)[C@H]3CC[C@]12C	36.8	26.6	45	–
C[C@H](CCC(=O)O)[C@H]1CC[C@H]2[C@@H]3[C@@H](O)C[C@@H]4C[C@@H](N=[N+]=[N-])CC[C@]4(C)[C@H]3CC[C@]12C	30.3	101	37	–
C[C@H](CCC(=O)O)[C@H]1CC[C@H]2[C@@H]3[C@@H](O)C[C@@H]4CCCC[C@]4(C)[C@H]3CC[C@]12C	39.9	23.7	30	–
C[C@H](C(=O)O)[C@H]1CC[C@H]2[C@@H]3[C@@H](O)C[C@@H]4C[C@H](O)CC[C@]4(C)[C@H]3CC[C@]12C	80.5	74.8	799	–

SMILES	viability at 24 h, 500 µM [1] [%]	viability at 24 h, 500 µM [2] [%]	CC50 at 24 h [3] [µM]	Activity [4]
C[C@H](CCC#N)[C@H]1CC[C@H]2[C@@H]3[C@@H](O)C[C@@H]4C[C@H](O)CC[C@]4(C)[C@H]3CC[C@]12C	94	85.2	–	–
C[C@H](C#N)[C@H]1CC[C@H]2[C@@H]3[C@@H](O)C[C@@H]4C[C@H](O)CC[C@]4(C)[C@H]3CC[C@]12C	80.5	87.3	–	–
C[C@H](CCC(=O)O)[C@H]1CC[C@H]2[C@@H]3[C@H](O)C[C@@H]4C[C@H](O)CC[C@]4(C)[C@H]3CC[C@]12C [CHENODIOL]	42.2	72.3	216	–
C[C@H](CCC(=O)O)[C@H]1CC[C@H]2[C@@H]3[C@H](O)C[C@@H]4C[C@H](O)CC[C@]4(C)[C@H]3C[C@H](O)[C@]12C [CHOLIC ACID]	102	90.8	1080	–
C[C@H](CCC(=O)O)[C@H]1CC[C@H]2[C@@H]3C(=O)C[C@@H]4CC(=O)CC[C@]4(C)[C@H]3CC(=O)[C@]12C [DEHYDROCHOLIC ACID]	111	54.4	–	–
C[C@H](CCC(=O)O)[C@H]1CC[C@H]2[C@@H]3CC[C@@H]4C[C@H](O)CC[C@]4(C)[C@H]3C[C@H](O)[C@]12C [DEOXYCHOLIC ACID]	41.2	57	257	–
C[C@H](CCC(=O)NCC(=O)O)[C@H]1CC[C@H]2[C@@H]3[C@H](O)C[C@@H]4C[C@H](O)CC[C@]4(C)[C@H]3CC[C@]12C [GLYCOCHENODEOXYCHOLATE]	130	105	729	Toxic
C[C@H](CCC(=O)NCC(=O)O)[C@H]1CC[C@H]2[C@@H]3[C@H](O)C[C@@H]4C[C@H](O)CC[C@]4(C)[C@H]3C[C@H](O)[C@]12C [GLYCOCHOLIC ACID]	105	87.7	–	–
C[C@H](CCC(=O)NCC(=O)O)[C@H]1CC[C@H]2[C@@H]3CC[C@@H]4C[C@H](O)CC[C@]4(C)[C@H]3C[C@H](O)[C@]12C [GLYCODEOXYCHOLATE]	111	105	1240	Toxic
C[C@H](CCC(=O)NCC(=O)O)[C@H]1CC[C@H]2[C@@H]3[C@@H](O)C[C@@H]4C[C@H](O)CC[C@]4(C)[C@H]3CC[C@]12C [GLYCOURSODEOXYCHOLIC ACID]	109	104	–	–
C[C@H](CCC(=O)O)[C@H]1CC[C@H]2[C@@H]3C[C@H](O)[C@@H]4C[C@H](O)CC[C@]4(C)[C@H]3CC[C@]12C [HYODEOXYCHOLIC_ACID]	88.2	73.8	–	–
C[C@H](CCC(=O)O)[C@H]1CC[C@H]2[C@@H]3CC[C@@H]4C[C@H](O)CC[C@]4(C)[C@H]3C[C@@H](O)[C@]12C [LAGODEOXYCHOLATE]	59	89	389	–
C[C@H](CCC(=O)O)[C@H]1CC[C@H]2[C@@H]3CC[C@@H]4C[C@H](O)CC[C@]4(C)[C@H]3CC[C@]12C [LITHOCHOLIC ACID]	41.7	63.7	25	–
COC(=O)CC[C@@H](C)[C@H]1CC[C@H]2[C@@H]3CC[C@@H]4C[C@H](O)CC[C@]4(C)[C@H]3C[C@H](O)[C@]12C [METHYL DEOXYCHOLATE]	28.1	48.8	46	–
C[C@H](CC(=O)O)[C@H]1CC[C@H]2[C@@H]3[C@@H](O)C[C@@H]4C[C@H](O)CC[C@]4(C)[C@H]3CC[C@]12C [NORUCHOLIC ACID]	88.8	71.8	–	–
C[C@H](CCC(=O)O)[C@H]1CC[C@H]2[C@@H]3[C@@H](O)C[C@@H]4C[C@H](O)CC[C@]4(C)[C@H]3CC[C@]12C [URSODIOL]	78.8	74	1310	–
